Holding throughout (format): cell-based
The target of experiment [1] is T1, α4β1 integrin (Homo sapiens (Human), UniProt P05556+P13612). Description: Integrin Adhesion Assay: Protocol 2 (VCAM-coated plate, Jurkat cells, CellTiter GLO readout). To be noted: determined by at least one of the assays described (protocol not specified). As for the experimental part:
α4β7 and α4β1 inhibition was evaluated in vitro using at least one of the following procedures:
Integrin Adhesion Assay: Protocol 2
VCAM (R&D Systems, 0.1 ug) was diluted in 50 μL PBS, added to each well of an opaque ELISA plate (Thermo), and incubated overnight at 4° C. Coated plates were washed once with PBS and then blocked with 200 μL of assay buffer (10 mM HEPES, 150 mM NaCl, 1 mM MnCl2, 0.1 mM CaCl2), 1% BSA) for 1 hour at 37° C. and 5% CO2. After incubation, buffer was aspirated from the plates and 50 μL of fresh assay buffer was added. Compounds were added by compounds dispenser (Tecan) and DMSO concentration was normalized to 1% across each plate. 50 μL of Jurkat cells (2×10^6 per mL) were added to each well and the plates were incubated for 1 hour at 37° C. and 5% CO2. After incubation, plates were allowed to cool to RT for 10 minutes before being washed four times in assay buffer by an automated plate washer (BioTek). After washing, 100 μL of a 1:1 mixture of assay buffer and CellTiter GLO 2.0 reagent (Promega) were added to each well. Plates were mixed for 2 minutes at 1000 rpm and then allowed to incubate an additional 10 minutes before reading out luminescence on a Tecan Spark plate reader. Raw data was converted to percent inhibition based on DMSO only and control compound wells, and curves were analyzed by 4-parameter fit within Dotmatics software.
Background: In ATP-based viability assays light output follows the ATP content of the culture.

The target in experiment [2] is T2, α4β7 integrin (Homo sapiens (Human), UniProt P13612+P26010). Description: Integrin Adhesion Assay: Protocol 1 (MAdCAM-coated plate, RPMI-8866 cells, CellTiter GLO readout). The essentials: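 RPMI-8866 cells (2×10^6 per mL) added with compounds (1% DMSO) to MAdCAM-coated wells blocked in HEPES/NaCl buffer with 1 mM MnCl2, 0.1 mM CaCl2, 1% BSA; 1 h at 37° C, 5% CO2. After four washes, bound cells read by CellTiter GLO luminescence; % inhibition vs DMSO and control wells, 4-parameter fit.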

The target in experiment [3] is T2, α4β7 integrin. Description: Integrin Adhesion Assay: Protocol 4 (MAdCAM-coated plate, RPMI-8866 cells with stable LOF mutation of the ITGB1 gene). Conditions: RPMI-8866 cells with stable LOF mutation of the ITGB1 gene; read-out: Mean IC50 α4β7 KO^a. The essentials: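 RPMI-8866 cells with CRISPR/Cas9 knockout of ITGB1 (2×10^6/mL) were added to MAdCAM-coated wells with compound (1% DMSO) in HEPES/NaCl buffer with 1 mM MnCl2, 0.1 mM CaCl2 and 1% BSA, then incubated 1 h at 37 °C. After four washes, adherent cells were quantified by CellTiter-Glo luminescence. Percent inhibition versus DMSO and control compound was fitted to 4-parameter curves.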

In experiment [4] the target is T1, α4β1 integrin. Description: Integrin Adhesion Assay: Protocol 5 (VCAM-coated plate, RPMI-8866 cells with stable LOF mutation of the ITGB7 gene). To be noted: RPMI-8866 cells with stable LOF mutation of the ITGB7 gene; read-out: Mean IC50 α4β1 KO^b. The essentials: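 RPMI-8866 B cells with CRISPR/Cas9 ITGB7 knockout (clonal, verified by flow cytometry) adhered to VCAM-coated wells for 1 h at 37° C in HEPES/NaCl buffer with 1 mM MnCl2, 0.1 mM CaCl2, 1% BSA, 1% DMSO. Bound cells quantified by CellTiter-Glo luminescence after washing; % inhibition versus DMSO and control, 4-parameter fit.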

Where [5] appears, read: integrin adhesion assay, determined by at least one of the assays described (protocol not specified).

As usually defined, the pIC50 is −log10 of the IC50, conventionally taken in molar units.

pIC50: −log10 of the molar value.

T2 sequence (P13612 34-1032): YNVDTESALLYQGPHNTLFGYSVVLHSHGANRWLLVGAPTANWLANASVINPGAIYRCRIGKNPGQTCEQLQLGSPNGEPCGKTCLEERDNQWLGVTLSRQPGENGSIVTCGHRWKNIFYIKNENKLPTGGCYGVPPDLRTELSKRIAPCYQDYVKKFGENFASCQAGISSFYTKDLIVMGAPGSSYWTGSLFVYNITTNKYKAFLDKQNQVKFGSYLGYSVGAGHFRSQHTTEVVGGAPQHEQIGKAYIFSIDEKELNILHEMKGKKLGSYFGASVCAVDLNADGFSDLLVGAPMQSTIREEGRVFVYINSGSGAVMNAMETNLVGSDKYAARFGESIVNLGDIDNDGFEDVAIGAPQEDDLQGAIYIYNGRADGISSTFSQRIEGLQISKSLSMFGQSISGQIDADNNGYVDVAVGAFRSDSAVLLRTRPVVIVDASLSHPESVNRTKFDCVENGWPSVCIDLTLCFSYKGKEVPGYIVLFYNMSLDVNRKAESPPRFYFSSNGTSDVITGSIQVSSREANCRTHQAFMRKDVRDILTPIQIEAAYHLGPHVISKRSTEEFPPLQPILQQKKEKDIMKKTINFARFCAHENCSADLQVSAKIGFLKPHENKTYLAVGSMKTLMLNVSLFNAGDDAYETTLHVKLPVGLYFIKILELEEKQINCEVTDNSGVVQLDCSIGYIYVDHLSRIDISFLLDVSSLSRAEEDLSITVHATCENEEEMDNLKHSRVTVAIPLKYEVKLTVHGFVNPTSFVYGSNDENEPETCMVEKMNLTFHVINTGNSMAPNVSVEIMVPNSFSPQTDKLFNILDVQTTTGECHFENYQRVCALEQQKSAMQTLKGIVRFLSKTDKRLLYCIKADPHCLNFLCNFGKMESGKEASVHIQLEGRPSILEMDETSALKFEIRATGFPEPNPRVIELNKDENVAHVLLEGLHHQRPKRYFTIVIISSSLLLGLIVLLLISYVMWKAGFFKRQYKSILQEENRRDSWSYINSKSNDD
T2 sequence (P26010 20-798): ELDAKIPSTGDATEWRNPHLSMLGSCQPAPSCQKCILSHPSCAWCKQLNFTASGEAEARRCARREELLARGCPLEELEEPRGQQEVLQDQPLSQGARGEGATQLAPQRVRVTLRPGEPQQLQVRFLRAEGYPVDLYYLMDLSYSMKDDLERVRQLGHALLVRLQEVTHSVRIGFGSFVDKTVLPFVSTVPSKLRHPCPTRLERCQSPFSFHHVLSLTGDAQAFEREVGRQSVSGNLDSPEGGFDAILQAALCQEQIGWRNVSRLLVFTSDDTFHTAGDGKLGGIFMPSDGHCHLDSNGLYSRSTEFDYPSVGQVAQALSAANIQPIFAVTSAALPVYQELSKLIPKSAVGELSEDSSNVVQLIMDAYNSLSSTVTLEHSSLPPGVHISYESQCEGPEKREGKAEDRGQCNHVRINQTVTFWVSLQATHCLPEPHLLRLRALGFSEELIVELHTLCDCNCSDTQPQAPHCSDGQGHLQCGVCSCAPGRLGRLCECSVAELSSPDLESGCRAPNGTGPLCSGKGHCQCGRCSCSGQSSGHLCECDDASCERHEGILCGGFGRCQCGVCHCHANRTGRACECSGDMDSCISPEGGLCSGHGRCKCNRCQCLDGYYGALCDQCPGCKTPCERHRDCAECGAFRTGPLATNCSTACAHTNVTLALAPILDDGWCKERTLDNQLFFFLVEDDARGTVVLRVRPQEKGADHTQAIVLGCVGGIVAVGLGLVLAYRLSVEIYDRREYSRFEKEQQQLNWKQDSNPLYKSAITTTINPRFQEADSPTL
T1 sequence (P13612 34-1032): as the sequence (P13612 34-1032) above
T1 sequence (P05556 21-798): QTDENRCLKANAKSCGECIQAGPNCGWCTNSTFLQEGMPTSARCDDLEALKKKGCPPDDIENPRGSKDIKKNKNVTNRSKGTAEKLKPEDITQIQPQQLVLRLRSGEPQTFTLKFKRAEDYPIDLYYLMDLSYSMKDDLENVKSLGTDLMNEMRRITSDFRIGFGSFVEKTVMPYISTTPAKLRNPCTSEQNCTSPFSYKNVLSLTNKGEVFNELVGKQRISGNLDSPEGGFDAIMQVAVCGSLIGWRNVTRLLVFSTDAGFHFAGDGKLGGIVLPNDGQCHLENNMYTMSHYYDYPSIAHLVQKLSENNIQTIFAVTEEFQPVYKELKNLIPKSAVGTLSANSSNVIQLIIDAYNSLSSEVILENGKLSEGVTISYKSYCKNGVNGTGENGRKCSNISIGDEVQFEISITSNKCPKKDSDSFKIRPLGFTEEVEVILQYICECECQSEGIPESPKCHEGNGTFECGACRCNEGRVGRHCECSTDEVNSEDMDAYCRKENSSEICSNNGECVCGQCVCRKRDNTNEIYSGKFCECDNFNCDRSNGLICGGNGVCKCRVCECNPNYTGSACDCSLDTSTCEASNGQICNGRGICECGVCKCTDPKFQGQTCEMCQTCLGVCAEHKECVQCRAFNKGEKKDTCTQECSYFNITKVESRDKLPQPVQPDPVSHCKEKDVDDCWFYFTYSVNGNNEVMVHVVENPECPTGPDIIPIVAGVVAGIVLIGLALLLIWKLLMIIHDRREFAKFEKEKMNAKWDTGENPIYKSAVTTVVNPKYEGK

As for `CN(C)CCn1ccc(=O)n(-c2cccc3c(C[C@H](NC(=O)c4c(F)cccc4F)C(=O)O)cccc23)c1=O` [Compound 119], the pIC50 at α4β1 integrin [1] was under 6.00; against α4β7 integrin [2] (setting [5]), 7.00 to 8.00.
As to `Cn1ccc(=O)n(-c2cccc3c(C[C@H](NCc4ccccc4)C(=O)O)cccc23)c1=O` [Compound 69], the negative-log IC50 (pIC50) against α4β1 integrin [1] and on α4β7 integrin [2] (setting [5]) was under 6.00 throughout.
Regarding `COC(=O)[C@H](Cc1cccc2c(-n3c(=O)ccn(C)c3=O)cccc12)NC(=O)c1c(F)cccc1CN1CCOCC1` [Compound 168], the negative logarithm of the IC50 (pIC50) on α4β1 integrin [1] was under 6.00; at α4β7 integrin [2] (setting [5]) it was 6.00 to 7.00.
In the case of `Cn1ccc(=O)n(-c2cccc3c(C[C@H](NC(=O)c4ccc(C(=O)NCCCCN)nc4)C(=O)O)cccc23)c1=O` [Compound 24], the pIC50 at α4β1 integrin [1] and on α4β7 integrin [2] (setting [5]) was under 6.00 each time.
Take `Cn1ccc(C(F)(F)F)c(-c2nccc3c(C[C@H](NC(=O)c4c(F)cc(CN5CCOCC5)cc4F)C(=O)O)cccc23)c1=O` [Compound 246]: the pIC50 was under 6.00 on α4β1 integrin [1] and 6.00 to 7.00 at α4β7 integrin [2] (setting [5]).
The corresponding values for `Cn1ccc(=O)n([C@@H]2CCc3c(C[C@H](NC(=O)c4c(F)cccc4F)C(=O)O)cccc32)c1=O` (single isomer, unassigned) [Compound 281] are under 6.00 and 7.00 to 8.00.
For `Cn1ccc(=O)n(-c2cccc3c(C[C@H](NC(=O)C4(C)CCN(C5COC5)CC4)C(=O)O)cccc23)c1=O` [Compound 60], the pIC50 on α4β1 integrin [1] was under 6.00; on α4β7 integrin [2] (setting [5]), 7.00 to 8.00.
Consider `Cn1ccc(=O)n(-c2cccc3c(C[C@H](NC(=O)C45CCC(C(F)(F)F)(CC4)CC5)C(=O)O)cccc23)c1=O` [Compound 165], for which the pIC50 on α4β1 integrin [1] is under 6.00; against α4β7 integrin [2] (setting [5]), 6.00 to 7.00.
`CC(C)C1(C(=O)N[C@@H](Cc2cccc3c(-n4c(=O)ccn(C)c4=O)cccc23)C(=O)O)CCN(CC(F)(F)F)CC1` [Compound 153]: the pIC50 at α4β1 integrin [1] was 6.00 to 7.00; against α4β7 integrin [2] (setting [5]), 7.00 to 8.00.
The corresponding values for `Cn1ccc(=O)n(-c2cccc3c(C[C@H](NC(=O)C4(C)CCN(CC(F)(F)F)CC4)C(=O)O)cccc23)c1=O` [Compound 18] are under 6.00 and 7.00 to 8.00.
The corresponding values for `Cn1ccc(=O)n(-c2cccc3c(C[C@H](NC(=O)c4c(F)cc(N(CC(F)(F)F)CC(F)(F)F)cc4F)C(=O)O)cccc23)c1=O` [Compound 130] are under 6.00 and over 8.00.
For `O=C(N[C@@H](Cc1cccc2c(-c3nccc4ccncc34)cccc12)C(=O)O)c1c(F)cc(N2CCOC[C@H]2CC(F)F)cc1CN1CCOCC1` [Compound 146], in that order: under 6.00 and over 8.00.
Consider `Cn1ccc(=O)n(-c2cccc3c(C[C@H](NC(=O)c4c(Cl)cccc4Cl)C(=O)O)cccc23)c1=O` [Compound 14], for which the figures for the pIC50 on α4β1 integrin [1] and against α4β7 integrin [2] (setting [5]) were under 6.00 and over 8.00, respectively.
For the compound `CCN1CCC(C)(C(=O)N[C@@H](Cc2cccc3c(-n4c(=O)ccn(C)c4=O)cccc23)C(=O)O)C(F)(F)C1` (stereo partly shown) [Compound 56], the values for the negative logarithm of the IC50 (pIC50) against α4β1 integrin [1] and against α4β7 integrin [2] (setting [5]) were under 6.00 and 6.00 to 7.00, respectively.
Take `CC(C)Oc1cc(F)c(C(=O)N[C@@H](Cc2cccc3c(-n4c(=O)ccn(C)c4=O)cccc23)C(=O)O)c(F)c1` [Compound 30]: the pIC50 against α4β1 integrin [1] was under 6.00; against α4β7 integrin [2] (setting [5]) it was 7.00 to 8.00.
Take `Cn1ccc(C(F)(F)F)c(-c2nccc3c(C[C@H](NC(=O)c4c(F)cc(N5CCOC[C@H]5C(F)(F)F)cc4F)C(=O)O)cccc23)c1=O` [Compound 218]: the figures for the pIC50 on α4β1 integrin [1] and against α4β7 integrin [2] (setting [5]) were under 6.00 and 7.00 to 8.00, respectively.
Consider `Cn1c(CCN2CC(F)C2)cc(=O)n(-c2cccc3c(C[C@H](NC(=O)c4c(F)cc(N5CCOC[C@@H]5C(F)(F)F)cc4F)C(=O)O)cccc23)c1=O` [Compound 169], for which the pIC50 at α4β1 integrin [1] is under 6.00; at α4β7 integrin [2] (setting [5]) it was over 8.00.
For `CCOCc1cc(OC)c(-c2nccc3c(C[C@H](NC(=O)c4c(F)cccc4F)C(=O)O)cccc23)c(OC)c1` [Compound 260], in that order: 6.00 to 7.00 and 7.00 to 8.00.
`Cn1ccc(=O)n(-c2cccc3c(C[C@H](NC(=O)[C@@H]4C[C@H]5CC[C@@H](C4)N5CC(F)(F)F)C(=O)O)cccc23)c1=O` [Compound 166]: the pIC50 on α4β1 integrin [1] and on α4β7 integrin [2] (setting [5]) was under 6.00 each time.
Turning to `CCOCc1cc(OC)c(-c2cccc3c(C[C@H](NC(=O)c4c(F)cc(N5CCOC[C@@H]5C(F)(F)F)cc4F)C(=O)O)cccc23)c(OC)c1` [Compound 171], the figures for the negative-log IC50 (pIC50) at α4β1 integrin [1] and against α4β7 integrin [2] (setting [5]) were 6.00 to 7.00 and over 8.00, respectively.
For `CCCS(=O)(=O)Nc1ccc(F)c(C(=O)N[C@@H](Cc2cccc3c(-n4c(=O)ccn(C)c4=O)cccc23)C(=O)O)c1F` [Compound 132], in that order: 6.00 to 7.00 and over 8.00.
On to `CC(=O)N1CCC(C)(C(=O)N[C@@H](Cc2cccc3c(-n4c(=O)ccn(C)c4=O)cccc23)C(=O)O)CC1` [Compound 50], for which the pIC50 is under 6.00 on α4β1 integrin [1] and 6.00 to 7.00 at α4β7 integrin [2] (setting [5]).
For `Cn1ccc(=O)n(-c2cccc3c(C[C@H](NC(=O)C(F)(F)Sc4ccc(Cl)cc4Cl)C(=O)O)cccc23)c1=O` [Compound 76], the pIC50 against α4β1 integrin [1] and on α4β7 integrin [2] (setting [5]) was under 6.00 throughout.
In the case of `Cn1ccc(C(F)(F)F)c(-c2cccc3c(C[C@H](OCc4c(F)cccc4F)C(=O)O)cccc23)c1=O` [Compound 80], the pIC50 against α4β1 integrin [1] and against α4β7 integrin [2] (setting [5]) was under 6.00 in each case.
With `Cn1ccc(=O)n(-c2cccc3c(C[C@H](NC(=O)C45CCN(CC4)CC5)C(=O)O)cccc23)c1=O` [Compound 62], the pIC50 on α4β1 integrin [1] and at α4β7 integrin [2] (setting [5]) was under 6.00 each time.
As for `C[C@H]1COCCN1c1cc(F)c(C(=O)N[C@@H](Cc2cccc3c(-c4c(C(F)(F)F)ccn(C)c4=O)nccc23)C(=O)O)c(F)c1` [Compound 216], the results for the pIC50 against α4β1 integrin [1] and at α4β7 integrin [2] (setting [5]) were under 6.00 and 7.00 to 8.00, respectively.
The corresponding values for `O=C(N[C@@H](Cc1cccc2c(-c3cccc4ccncc34)nccc12)C(=O)O)c1c(F)cc(N2CCOC[C@@H]2C(F)(F)F)cc1CN1CCCC1` [Compound 255] are 6.00 to 7.00 and over 8.00.
`CN(C)CCc1cn(C)c(=O)n(-c2cccc3c(C[C@H](NC(=O)c4c(F)cccc4F)C(=O)O)cccc23)c1=O` [Compound 117]: the values for the pIC50 against α4β1 integrin [1] and on α4β7 integrin [2] (setting [5]) were under 6.00 and 7.00 to 8.00, respectively.
The corresponding values for `Cn1ccc(C(F)(F)F)c(-c2nccc3c(C[C@H](NC(=O)c4c(F)cccc4C(F)(F)F)C(=O)O)cccc23)c1=O` [Compound 258] are under 6.00 and 6.00 to 7.00.
`CCC1(C(=O)N[C@@H](Cc2cccc3c(-n4c(=O)ccn(C)c4=O)cccc23)C(=O)O)CCN(CC(F)(F)F)CC1` [Compound 152]: the pIC50 against α4β1 integrin [1] was 6.00 to 7.00; against α4β7 integrin [2] (setting [5]), 7.00 to 8.00.
The corresponding values for `CCN1CCC(C)(C(=O)N[C@@H](Cc2cccc3c(-n4c(=O)ccn(C)c4=O)cccc23)C(=O)O)CC1` [Compound 160] are under 6.00 and 7.00 to 8.00.
For `Cn1ccc(C(F)(F)F)c(-c2nccc3c(C[C@H](NC(=O)c4c(F)cc(N(CC(F)(F)F)CC(F)(F)F)cc4CN4CCCC4)C(=O)O)cccc23)c1=O` [Compound 252], in that order: under 6.00 and over 8.00.
On to `COc1ccc(CN(C)C)c(OC)c1-c1cccc2c(C[C@H](NC(=O)c3c(C)cccc3F)C(=O)O)cccc12` [Compound 450], for which the negative logarithm of the IC50 (pIC50) is over 8.00 on α4β7 integrin [3], 6.00 to 7.00 on α4β1 integrin [4] and over 8.00 at α4β7 integrin [2].

Source of the values: US20250313535A1, “ALPHA 4 BETA 7 INTEGRIN MODULATORS AND USES THEREOF” (DICE MOLECULES SV, INC., priority 2022, published 2025).
